For the first assay, the target named is T1, P2X7 receptor (Homo sapiens, UniProt Q99572).
T1 construct: host or cells: SH-SY5Y
T1 sequence (Q99572 1-595): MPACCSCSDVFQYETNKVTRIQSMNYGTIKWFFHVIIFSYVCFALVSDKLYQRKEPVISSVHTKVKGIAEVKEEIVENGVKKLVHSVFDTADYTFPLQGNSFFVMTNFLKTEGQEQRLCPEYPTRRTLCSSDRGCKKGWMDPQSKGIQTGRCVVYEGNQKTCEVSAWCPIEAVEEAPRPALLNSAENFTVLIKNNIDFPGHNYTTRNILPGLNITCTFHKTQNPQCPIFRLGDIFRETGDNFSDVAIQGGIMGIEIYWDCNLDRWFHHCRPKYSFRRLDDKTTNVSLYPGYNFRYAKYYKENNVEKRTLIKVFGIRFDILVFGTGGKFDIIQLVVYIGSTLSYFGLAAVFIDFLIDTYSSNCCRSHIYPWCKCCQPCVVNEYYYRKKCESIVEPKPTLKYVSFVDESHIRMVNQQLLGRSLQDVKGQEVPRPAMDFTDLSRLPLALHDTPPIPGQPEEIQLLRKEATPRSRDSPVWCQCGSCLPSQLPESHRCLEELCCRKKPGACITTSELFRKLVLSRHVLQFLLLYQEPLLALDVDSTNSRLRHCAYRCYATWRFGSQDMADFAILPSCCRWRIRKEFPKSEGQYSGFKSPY
In words: P2X7 calcium mobilization assay, high throughput, antagonist activity (Example 4A). In kind it is cell-based.
Details: not given
The gist of the method: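 Cells plated 100,000/well the day before; after 1 h dye loading and one rinse, cells were preincubated 1 h at room temperature with test compound. Calcium mobilization then read on FLIPR^TETRA; maximum RFU corrected by subtracting mean no-agonist response and referenced to mean agonist-control maximum.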
As for `C[C@@H](O)CNC(=O)Cc1cn2c(C(=O)NCC34CC5CC(CC(C5)C3)C4)cccc2n1` [Compound 28, N-(adamantan-1-ylmethyl)-2-(2-{[(2R)-2-hydroxy-propyl]amino}-2-oxoethyl)imi-dazo[1,2-a]pyridine-5-carboxamide], the IC50 was under 2000 nM.
The same measure, in the same setting: the figure for `CCCNC(=O)Cc1cn2c(C(=O)NCC34CC5CC(CC(C5)C3)C4)cccc2n1` [Compound 146, N-(adamantan-1-ylmethyl)-2-[2-oxo-2-(propylamino)ethyl]imi-dazo[1,2-a]pyridine-5-carboxamide] is under 2000 nM; for `CCOC(=O)c1cn2c(C(=O)NCC(CC(C)C)c3ccccc3)cccc2n1` (stereo not drawn) [Compound 128, ethyl 5-[(4-methyl-2-phenyl-pentyl)carbamoyl]imi-dazo[1,2-a]pyridine-2-carboxylate] it is under 2000 nM.

The same assay, now with this note: 50% decrease in the fluorescence response of cells exposed to 80 μM 2′(3′)-O-(4-benzoyl-benzoyl)adenosine 5′-triphosphate; Example 4A; read-out: IC50.
With `CCN(C)C(=O)c1cn2c(C(=O)NC[C@@H]3CC[C@H]4C[C@@H]3C4(C)C)cccc2n1` [Compound 469, 5-N-{[(1S,2R,5S)-6,6-dimethylbicyclo[3.1.1]hept-2-yl]methyl}-2-N-ethyl-2-N-methylimidazo[1,2-a]pyridine-2,5-dicarboxamide], the IC50 was under 2000 nM.
Same read-out and setting: in the case of `CC1(C)[C@@H]2CC[C@@H](CNC(=O)c3cccc4nc(CC(=O)NCC5CCNCC5)cn34)[C@H]1C2` [Compound 589, N-{[(1R,2R,5R)-6,6-dimethylbicyclo[3.1.1]hept-2-yl]methyl}-2-{2-oxo-2-[(piperidin-4-ylmethyl)amino]ethyl} imidazo[1,2-a]pyridine-5-carboxamide] it was under 2000 nM.
Take `CC1(C)[C@@H]2CC[C@@H](CNC(=O)c3cccc4nc(CC(=O)N5CCCCC5CN)cn34)[C@H]1C2` (stereo partly drawn) [Compound 579, 2-{2-[2-(aminomethyl)piperidin-1-yl]-2-oxoethyl}-N-{[(1R,2R,5R)-6,6-dimethylbicyclo[3.1.1]hept-2-yl]methyl}imidazo[1,2-a]pyridine-5-carboxamide]: the IC50 was under 2000 nM.
The same measure, in the same setting: the figure for `CNCc1cn2c(C(=O)NCC34CC5CC(CC(C5)C3)C4)cccc2n1` [Compound 596, N-(adamantan-1-ylmethyl)-2-[(methylamino)methyl] imidazo[1,2-a] pyridine-5-carboxamide] is under 2000 nM; for `COCCN(C(=O)c1cn2c(C(=O)NC[C@@H]3CC[C@H]4C[C@@H]3C4(C)C)cccc2n1)C(C)C` [Compound 483, 5-N-{[(1S,2R,5S)-6,6-dimethylbicyclo[3.1.1]hept-2-yl]methyl}-2-N-isopropyl-2-N-(2-methoxyethyl)imidazo [1,2-a]pyridine-2,5-dicarboxamide] it is under 2000 nM.

Still in this assay, the particulars now being: 50% decrease in the fluorescence response of cells exposed to 80 μM of 2′(3′)-O-(4-benzoyl-benzoyl)adenosine 5′-triphosphate; Example 4A; read-out: IC50.
For the compound `Cc1ccc(C(CNC(=O)c2cccc3nc(CN4CC[C@@H](N)C4)cn23)CC(C)C)cc1` (stereo partly drawn) [Compound 760, 2-[(3-aminopyrrolidin-1-yl)methyl]-N-[4-methyl-2-(4-methylphenyl)pentyl] imidazo[1,2-a] pyridine-5-carboxamide], the concentration for half-maximal inhibition (IC50) was under 2000 nM.
Same read-out and setting: the figure for `O=C(NCC1CCCN1)c1cn2c(C(=O)NCC34CC5CC(CC(C5)C3)C4)cccc2n1` (stereo not drawn) [Compound 639, 5-N-(adamantan-1-ylmethyl)-2-N-(pyrrolidin-2-ylmethyl)imidazo[1,2-a]pyridine-2,5-dicarboxamide] is under 2000 nM.

The same assay, now with this note: 50% decrease in the fluorescence response of cells exposed to 80 μM of 2′(3′)-O-(4-benzoyl-benzoyl)adenosine 5′-triphosphate; determined as in Example 4A; read-out: IC50.
Consider `O=C(NCC12CC3CC(CC(C3)C1)C2)c1cccc2nc(Cn3nnnc3N3CCOCC3)cn12` [Compound 828, N-(adamantan-1-ylmethyl)-2-[(5-morpholin-4-yl-1H-tetrazol-1-yl)methyl]imidazo [1,2-a]pyridine-5-carboxamide], for which the IC50 is under 2000 nM.
The same measure, in the same setting: the figure for `Cc1ccc(C(CNC(=O)c2cccc3nc(Cn4nnc(CCO)n4)cn23)CC(C)C)cc1` (stereo not drawn) [Compound 917, 2-{[5-(2-hydroxyethyl)-2H-tetrazol-2-yl]methyl}-N-[4-methyl-2-(4-methylphenyl)pentyl] imidazo [1,2-a]pyridine-5-carboxamide] is under 2000 nM.
Same read-out and setting: in the case of `CN(C)C1CCCN(C(=O)Cc2cn3c(C(=O)NCC4(c5ccc(Cl)cc5)CCCCC4)cccc3n2)C1` (stereo not drawn) [Compound 894, N-{[1-(4-chlorophenyl)cyclohexyl]methyl}-2-{2-[3-(dimethylamino)piperidin-1-yl]-2-oxoethyl} imidazo[1,2-a] pyridine-5-carboxamide] it was under 2000 nM; in that of `O=C(O)CCc1cn2c(C(=O)NCC3(c4ccc(C(F)(F)F)cc4)CCCCC3)cccc2n1` [Compound 941, 3-{5-[({1-[4-(trifluoromethyl)phenyl]cyclohexyl}methyl)carbamoyl]imidazo [1,2-a]pyridin-2-yl}propanoic acid], under 2000 nM.
Regarding `CC(C)N1CCN(C(=O)Cc2cn3c(C(=O)NCC4(c5ccc(Cl)cc5)CCCCC4)cccc3n2)CC1` [Compound 886, N-{[1-(4-chlorophenyl)cyclohexyl]methyl}-2-[2-(4-isopropylpiperazin-1-yl)-2-oxoethyl] imidazo[1,2-a] pyridine-5-carboxamide], the IC50 is under 2000 nM.
Still for that read-out and setting: in the case of `O=C(NCC1(c2ccc(Cl)cc2)CCCCC1)c1cccc2nc(CSc3nnn[nH]3)cn12` [Compound 915, N-{[1-(4-chlorophenyl)cyclohexyl]methyl}-2-[(1H-tetrazol-5-ylthio)methyl] imidazo [1,2-a]pyridine-5-carboxamide] it was under 2000 nM.
The same measure, in the same setting: the figure for `O=C(NCC1(c2ccc(Cl)cc2)CCCCC1)c1cccc2nc(CC(=O)N3CCSCC3)cn12` [Compound 891, N-{[1-(4-chlorophenyl)cyclohexyl]methyl}-2-(2-oxo-2-thiomorpholin-4-ylethyl)imidazo [1,2-a]pyridine-5-carboxamide] is under 2000 nM.

The same assay, now with this note: SH-SY5Y cells; 50% decrease in fluorescence response to 80 μM BzATP; read-out: IC50.
For the compound `O=C(Cc1cn2c(C(=O)NCC34CC5CC(CC(C5)C3)C4)cccc2n1)NN1CCOCC1` [Compound 162, N-(adamantan-1-ylmethyl)-2-[2-(morpholin-4-ylamino)-2-oxoethyl]imidazo[1,2-a]pyridine-5-carboxamide], the IC50 is under 2000 nM.
As for `CCOCCNC(=O)Cc1cn2c(C(=O)NCC34CC5CC(CC(C5)C3)C4)cccc2n1` [Compound 155, N-(adamantan-1-ylmethyl)-2-{2-[(2-ethoxyethyl)amino]-2-oxoethyl}imidazo[1,2-a]pyridine-5-carboxamide], the IC50 is under 2000 nM.
`CN(C)C(=O)CNC(=O)c1cn2c(C(=O)NCC34CC5CC(CC(C5)C3)C4)cccc2n1` [Compound 74, 5-N-(adamantan-1-ylmethyl)--[2-(dimethylamino)-2-oxoethyl]imidazo[1,2-a]pyridine-2,5-dicarboxamide]: the IC50 is under 2000 nM.
In the case of `CN1CCN(C(=O)c2cn3c(C(=O)NCC45CC6CC(CC(C6)C4)C5)cccc3n2)CC1` [Compound 89, N-(adamantan-1-ylmethyl)-2-[(4-methylpiperazin-1-yl)carbonyl]imidazo[1,2-a]pyridine-5-carboxamide], the IC50 is under 2000 nM.
Take `CC(C)[C@H](CO)NC(=O)c1cn2c(C(=O)NCC34CC5CC(CC(C5)C3)C4)cccc2n1` [Compound 85, 5-N-(adamantan-1-ylmethyl)--[(1R)-1-(hydroxymethyl)-2-methyl-propyl]imidazo[1,2-a]pyridine-2,5-dicarboxamide]: the IC50 was under 2000 nM.
The same measure, in the same setting: in the case of `CC(C)CN(C)C(=O)Cc1cn2c(C(=O)NCC34CC5CC(CC(C5)C3)C4)cccc2n1` [Compound 173, N-(adamantan-1-ylmethyl)-2-{2-[isobutyl(methyl)amino]-2-oxoethyl}imidazo[1,2-a]pyridine-5-carboxamide] it was under 2000 nM.

The assay is the same for the next values; noted with them: fluorescence response of cells exposed to 80 μM 2′(3′)-O-(4-benzoyl-benzoyl)adenosine 5′-triphosphate; Example 4A; read-out: IC50.
With `COC[C@@H]1CCCN1C(=O)c1cn2c(NC(=O)CC34CC5CC(CC(C5)C3)C4)cccc2n1` [Compound 371, 2-adamantan-1-yl-N-(2-{[(2S)-2-(methoxymethyl)pyrrolidin-1-yl]carbonyl}imidazo [1,2-a]pyridin-5-yl)acetamide], the 50% inhibitory concentration (IC50) is under 2000 nM.
The same measure, in the same setting: in the case of `COCC1CCCN(C(=O)Cc2cn3c(C(=O)NCC(CC(C)C)c4ccccc4)cccc3n2)C1` (stereo not drawn) [Compound 240, 2-{2-[3-(methoxymethyl)piperidin-1-yl]-2-oxoethyl}-N-(4-methyl-2-phenylpentyl)imidazo [1,2-a]pyridine-5-carboxamide] it was under 2000 nM.
On to `CC1(C)[C@H]2CC[C@@H](CNC(=O)c3cccc4nc(C(=O)N5C[C@@H]6CC5CN6)cn34)[C@@H]1C2` (stereo in doubt) [Compound 303, 2-[(1S,4S)-2,5-diazabicyclo[2.2.1]hept-2-ylcarbonyl]-N-{[(1S,2R,5S)-6,6-dimethylbicyclo[3.1.1]hept-2-yl]methyl}imidazo[1,2-a]pyridine-5-carboxamide], for which the IC50 was under 2000 nM.
Still for that read-out and setting: in the case of `CC(C)CC(CNC(=O)c1cccc2nc(CC(=O)NC3CCCC3)cn12)c1ccccc1` (stereo not drawn) [Compound 224, 2-[2-(cyclopentylamino)-2-oxoethyl]-N-(4-methyl-2-phenylpentyl) imidazo [1,2-a]pyridine-5-carboxamide] it was under 2000 nM.

Values taken from patent publication US8431593B2, “Heteroaryl amide derivatives” (H. Lundbeck A/S, priority 2006, dated 2013).
